These results are taken from patent publication US9725439B2, “Quinazoline derivative and preparation method therefor” (CHIA TAI TIANQING PHARMACEUTICAL GROUP CO., LTD., priority 2013, dated 2017).

Broadly, the IC50 is the concentration that inhibits the measured activity by half. The AUC(0-inf) is total exposure, with the tail of the curve extrapolated. High values mean more exposure, low ones less exposure. For orientation: Cmax means the peak of the concentration-time curve. One may read the Tmax as the time from dosing to the highest level. The half-life is the time needed for the level to fall by half in the phase considered.

Series [1] has as its system BT474, a human breast cancer cell line. Briefly: Proliferation test of anchorage-independent cells. As to conditions: BT-474, 168 h, BT474, soft agarose, 7 days, CellTiter-Blue. Format: cell-based. As for the experimental part: (§1) 2. Proliferation Test of Anchorage-Independent Cells
(§2) NCI-H1975, a human non-small cell lung cancer cell, and BT474, a human breast cancer cell line, were incubated with RPIM-1640 or DMEM medium supplemented with 10% fetal bovine serum (FBS) in a cell incubator (37° C., 5% CO2). In the test of the compounds, the coated substrate with a concentration of 0.6% was used. The cells were screened with 0.3% low melting point agarose, then plated into 96-well plates with a density of 10,000 cells per well (100 μL). Starting from 10 mM, the compounds were diluted in a gradient of 3 times. For each concentration, 2 μL of the solution was taken and added into 98 μL of medium, then 5.3 μL of the mixture was added into the cell culture medium (where the final concentration of DMSO was 0.1%, v/v). After one week (7 days) of treatment, 20 μL of CellTiter-Blue®reagent (Promega) was added, incubated at 37° C. for 4 h. The fluorescent signal was read on Envison (Perkin Elmer).
(In general: Resazurin is reduced to fluorescent resorufin, in cell work by metabolically active cells.)

In series [2] the test system is NCI-H1975, a human non-small cell lung cancer cell. Briefly: Proliferation test of anchorage-independent cells. Format: cell-based. The following applies: 168 h, NCI-H1975, soft agarose, 7 days, CellTiter-Blue. As for the experimental part:
as §1, §2

For series [3], the target named is HER2 (Homo sapiens (Human), UniProt P04626). Briefly: In vitro enzymology test (HTRF kinase activity). Format: biochemical. The following applies: read-out: Enzyme activity (IC50 nM) HER2. The source says: 1. The Method for In Vitro Enzymology Test
Sequence of HER2 (P04626 23-1255): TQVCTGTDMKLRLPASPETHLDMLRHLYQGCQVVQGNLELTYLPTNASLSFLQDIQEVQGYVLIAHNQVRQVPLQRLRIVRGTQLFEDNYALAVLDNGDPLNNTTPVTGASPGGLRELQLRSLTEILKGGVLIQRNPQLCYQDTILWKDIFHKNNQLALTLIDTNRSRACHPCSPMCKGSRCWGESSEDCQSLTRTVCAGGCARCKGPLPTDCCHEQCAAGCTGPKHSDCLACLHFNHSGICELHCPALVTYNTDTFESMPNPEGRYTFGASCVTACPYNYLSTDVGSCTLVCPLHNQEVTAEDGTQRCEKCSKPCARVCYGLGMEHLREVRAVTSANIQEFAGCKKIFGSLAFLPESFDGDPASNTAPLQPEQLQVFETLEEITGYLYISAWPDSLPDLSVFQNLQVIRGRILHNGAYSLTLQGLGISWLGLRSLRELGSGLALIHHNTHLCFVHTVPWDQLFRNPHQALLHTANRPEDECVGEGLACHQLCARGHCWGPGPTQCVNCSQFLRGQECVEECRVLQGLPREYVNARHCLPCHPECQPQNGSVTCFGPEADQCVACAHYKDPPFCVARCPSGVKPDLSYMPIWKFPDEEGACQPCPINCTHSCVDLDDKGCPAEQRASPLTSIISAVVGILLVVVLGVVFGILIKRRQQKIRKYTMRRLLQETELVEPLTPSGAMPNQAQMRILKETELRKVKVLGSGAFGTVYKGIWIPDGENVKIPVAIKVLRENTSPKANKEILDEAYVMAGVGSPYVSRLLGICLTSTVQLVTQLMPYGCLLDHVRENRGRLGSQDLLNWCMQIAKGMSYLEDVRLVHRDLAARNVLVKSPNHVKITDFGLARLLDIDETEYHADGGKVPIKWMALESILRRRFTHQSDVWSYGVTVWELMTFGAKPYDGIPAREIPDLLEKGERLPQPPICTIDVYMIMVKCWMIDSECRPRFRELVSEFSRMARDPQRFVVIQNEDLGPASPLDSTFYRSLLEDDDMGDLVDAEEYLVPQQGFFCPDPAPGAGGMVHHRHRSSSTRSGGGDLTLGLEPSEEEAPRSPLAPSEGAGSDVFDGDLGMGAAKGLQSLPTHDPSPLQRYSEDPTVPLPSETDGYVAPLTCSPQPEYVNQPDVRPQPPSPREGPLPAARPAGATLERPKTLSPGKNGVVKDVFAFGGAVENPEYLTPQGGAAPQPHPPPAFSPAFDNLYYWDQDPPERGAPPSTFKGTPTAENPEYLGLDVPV
EGFR, EGFR (T790M, L858R), HER2 kinase were expressed and purified through an insect cell expression system by the Department of Biology, Centaurus Biopharma, Beijing, or purchased from commercially available products.
The platform for testing the kinase activity of EGFR, EGFR (T790M, L858R) and HER2 was established based on the homogeneous time-resolved fluorescence (HTRF) method provided by Cisbio Bioassays, and the activity of the compounds was determined with the platform. […]. And 2.5 μL of the mixture was taken, added into 384-well plates (OptiPlate-384, PerkinElmer), then 2.5 μL of kinase was added, mixed thoroughly by centrifuge. Then 5 μL of ATP and TK Substrate-biotin were added to initiate the reaction. The 384-well plates were incubated at 23° C. in an incubator for a certain period of time, then 5 μL of Eu3^+-Cryptate labeled TK-Antibody and 5 μL of streptavidin-XL665 were added to stop the reaction. After 1 h incubation in an incubator, the fluorescence value was read on Envision (PerkinElmer). The IC50 value of the compound was calculated with the software GraphPad Prism 5.0.
(In general: Time-resolved FRET reads energy transfer from a long-lived donor to a nearby acceptor.)

Series [4] can be described thus: Pharmacokinetics test on rats. Format: in vivo. The following applies: rat, po; male rats, gavage, single dose 5 mg/kg, plasma. As for the experimental part: Pharmacokinetics Test on Rats
In this study, 6 healthy adult male rats (from Beijing Vital River Laboratory Animal Technology Co., Ltd.) were used. The animals were fast overnight before the experiment. The fasting period was from 12 h prior to the administration, till 4 h after the administration. Drug administration was performed through gavage at a single dose of 5 mg/kg. The compounds to be tested were dissolved in 20% aqueous solution of sulfobutyl-β-cyclodextrin (SBE). Blood samples were collected 0.25, 0.5, 1, 2, 4, 6, 8 and 24 hours after drug administration. During blood sampling, the animals were lightly anesthetized with isoflurane, and approximately 0.5 mL whole blood was collected from retro-orbital venous sinus, placed into tubes that contain heparin as anticoagulant. The samples were centrifuged at 4° C., 4000 rpm for 5 min. The plasma was transferred into centrifuge tubes, and stored at −80° C. till being analyzed. The drug concentration in the plasma was quantitatively analyzed with liquid chromatography-tandem mass spectrometry (LC-MS/MS). From the analysis result of the samples, the pharmacokinetic parameter of the compounds was calculated with WinNonlin (WinNonlin Professional, version […]).

Structures are written as SMILES.

Turning to `C=CC(=O)N1CC(Nc2cc3c(Nc4cccc(Br)c4)ncnc3cc2OC)C1` [Example 14, N^6-(1-acryloylazetidin-3-yl)-N^4-(3-bromophenyl)-7-methoxyquinazoline-4,6-diamine], the half-inhibitory concentration (IC50) worked out at 4.6 nM in series [1], 59.3 nM in series [2] and 0.2 nM in series [3].

`C=CC(=O)N1CCC(Nc2cc3c(Nc4ccc(F)c(Cl)c4)ncnc3cc2O[C@H]2CCOC2)CC1` [Example 4, (S)—N^6-(1-acryloylpiperidin-4-yl)-N^4-(3-chloro-4-fluorophenyl)-7-(tetrahydrofuran-3-yloxy)quinazoline-4,6-diamine]: the values for the IC50 in series [1], in series [2] and in series [3] were 1.6 nM, 25.6 nM and 0.4 nM, respectively.

Consider `C=CC(=O)N1CCC(Nc2cc3c(Nc4ccc(F)c(Cl)c4)ncnc3cc2OCCOC)CC1` [Example 17, N^6-(1-acryloylpiperidin-4-yl)-N^4-(3-chloro-4-fluorophenyl)-7-(2-methoxyethoxy)quinazoline-4,6-diamine], for which the IC50 in series [1] was determined as 4.7 nM; in series [2], 71.5 nM; in series [3] it was 0.4 nM.

Regarding `C=CC(=O)N1CCC(Nc2cc3c(Nc4ccc(F)c(Cl)c4)ncnc3cc2OC)CC1` [Example 2, N^6-(1-acryloylpiperidin-4-yl)-N^4-(3-chloro-4-fluorophenyl)-7-methoxyquinazoline-4,6-diamine], in series [4], the AUC(0-inf) is 11000 ng·h/mL, the Cmax turned out to be 1970 ng/mL, the Tmax was found to be 60 min and the half-life was 143 min. Also, the IC50 in series [1] worked out at 2.1 nM. This compound came in with an IC50 in series [2] of 14 nM. In series [3], the IC50 worked out at 0.2 nM.

For `C=CC(=O)N1CC(Sc2cc3c(Nc4ccc(F)c(Cl)c4)ncnc3cc2OC)C1` [Example 19, 6-(1-acryloylazetidin-3-yl)-thio-N-(3-chloro-4-fluorophenyl)-7-methoxyquinazoline-4-amine], the IC50 was found to be 97.1 nM in series [1] and 274 nM in series [2].

As for `C=CC(=O)N1CC(Nc2cc3c(Nc4cccc(C(C)=O)c4)ncnc3cc2OC)C1` [Example 13, N^4-(3-acetylphenyl)-N^6-(1-acryloylazetidin-3-yl)-7-methoxyquinazoline-4,6-diamine], the IC50 in series [3] stood at 0.5 nM.

As for `C=CC(=O)N1CC(Nc2cc3c(Nc4ccc(F)c(Cl)c4)ncnc3cc2OCCOC)C1` [Example 16, N^6-(1-acryloylazetidin-3-yl)-N^4-(3-chloro-4-fluorophenyl)-7-(2-methoxyethoxy)quinazoline-4,6-diamine], the IC50 is 8.7 nM in series [1], 32.4 nM in series [2] and 0.3 nM in series [3].

As to `C=CC(=O)N1CC(Nc2cc3c(Nc4ccc(F)c(Cl)c4)ncnc3cc2OC)C1` [Example 1, N^6-(1-acryloylazetidin-3-yl)-N^4-(3-chloro-4-fluorophenyl)-7-methoxyquinazoline-4,6-diamine], in series [4], the AUC(0-inf) was 1350 ng·h/mL, the Cmax stood at 588 ng/mL, the time of peak concentration (Tmax) came to 30 min and the half-life is 78 min. The half-maximal inhibitory concentration (IC50) in series [1] is 4.2 nM. The IC50 in series [2] came out at 21.8 nM. Also, in series [3], the IC50 is 0.5 nM.

As to `C=CC(=O)N1CCC(Nc2cc3c(Nc4ccc(OCc5ccccn5)c(Cl)c4)ncnc3cc2OC)CC1` [Example 8, 1-(4-(4-(3-chloro-4-(pyridin-2-ylmethoxy)phenylamino)-7-methoxyquinazoline-6-ylamino)piperidin-1-yl)prop-2-ene-1-one], the values for the IC50 in series [1], in series [2] and in series [3] were 62.1 nM, 244 nM and 1.2 nM, respectively.

In the case of `C=CC(=O)N1CC(Nc2cc3c(Nc4ccc(F)c(Cl)c4)ncnc3cc2O[C@H]2CCOC2)C1` [Example 3, (S)—N^6-(1-acryloylazetidin-3-yl)-N^4-(3-chloro-4-fluorophenyl)-7-(tetrahydrofuran-3-yloxy)quinazoline-4,6-diamine], the IC50 in series [1] is 5.1 nM; in series [2], 31.4 nM; in series [3], 0.3 nM.

As to `C=CC(=O)N1CCC(Nc2cc3c(Nc4cccc(Br)c4)ncnc3cc2OC)CC1` [Example 15, N^6-(1-acryloylpiperidin-4-yl)-N^4-(3-bromophenyl)-7-methoxyquinazoline-4,6-diamine], the IC50 in series [1] came to 4.2 nM; in series [2], 56 nM; in series [3], 0.2 nM.
